According to PubChem BioAssay AID1259407 (Chemical Carcinogenesis Research Information System (CCRIS), 2018):
The source made the active and inactive calls. How the calls were made is not given here.

System: CCRIS mutagenicity, Ames/micronucleus/aberration tests
Assay: CCRIS mutagenicity studies
[1] = Test System: AMES SALMONELLA TYPHIMURIUM, Strain/Indicator: TA98, Metabolic Activation: NONE, Method: PREINCUBATION
[2] = Test System: AMES SALMONELLA TYPHIMURIUM, Strain/Indicator: TA98, Metabolic Activation: NONE, Method: STANDARD PLATE
[3] = Test System: AMES SALMONELLA TYPHIMURIUM, Strain/Indicator: TA98, Metabolic Activation: RAT, LIVER, S-9, AROCLOR 1254, Method: STANDARD PLATE
[4] = Test System: AMES SALMONELLA TYPHIMURIUM, Strain/Indicator: TA100, Metabolic Activation: NONE, Method: PREINCUBATION
[5] = Test System: AMES SALMONELLA TYPHIMURIUM, Strain/Indicator: TA100, Metabolic Activation: NONE, Method: STANDARD PLATE
[6] = Test System: AMES SALMONELLA TYPHIMURIUM, Strain/Indicator: TA100, Metabolic Activation: RAT, LIVER, S-9, AROCLOR 1254, Method: STANDARD PLATE

Measured: mutagenic call

CCN(CC)C(=S)SSC[C@H](NC(C)=O)C(=O)O
inactive: [1] inactive; negative | [2] inactive; negative | Test System: AMES SALMONELLA TYPHIMURIUM, Strain/Indicator: TA98, Metabolic Activation: RAT, LIVER, S-9, AROCLOR 1254, Method: PREINCUBATION inactive; negative | [3] inactive; negative | [4] inactive; negative | [5] inactive; negative | Test System: AMES SALMONELLA TYPHIMURIUM, Strain/Indicator: TA100, Metabolic Activation: RAT, LIVER, S-9, AROCLOR 1254, Method: PREINCUBATION inactive; negative | [6] inactive; negative

O=c1c2c(c3ccc4[nH]cccc4c3c1O)O2
inactive: [5] inactive; negative

CN1C[C@H](C(=O)N[C@]2(C)O[C@@]3(O)[C@@H]4CCCN4C(=O)[C@H](Cc4ccccc4)N3C2=O)C=C2c3cccc4[nH]cc(c34)C[C@H]21
inactive: Test System: AMES SALMONELLA TYPHIMURIUM, Strain/Indicator: TA98, Metabolic Activation: HAMSTER, LIVER, S-9, AROCLOR 1254 (10%), Method: PREINCUBATION inactive; negative | Test System: AMES SALMONELLA TYPHIMURIUM, Strain/Indicator: TA98, Metabolic Activation: HAMSTER, LIVER, S-9, AROCLOR 1254, Method: STANDARD PLATE inactive; negative | [1] inactive; negative | [2] inactive; negative | Test System: AMES SALMONELLA TYPHIMURIUM, Strain/Indicator: TA98, Metabolic Activation: RAT, LIVER, S-9, AROCLOR 1254 (10%), Method: PREINCUBATION inactive; negative | [3] inactive; negative | Test System: AMES SALMONELLA TYPHIMURIUM, Strain/Indicator: TA100, Metabolic Activation: HAMSTER, LIVER, S-9, AROCLOR 1254 (10%), Method: PREINCUBATION inactive; negative | Test System: AMES SALMONELLA TYPHIMURIUM, Strain/Indicator: TA100, Metabolic Activation: HAMSTER, LIVER, S-9, AROCLOR 1254, Method: STANDARD PLATE inactive; negative | [4] inactive; negative | [5] inactive; negative | Test System: AMES SALMONELLA TYPHIMURIUM, Strain/Indicator: TA100, Metabolic Activation: RAT, LIVER, S-9, AROCLOR 1254 (10%), Method: PREINCUBATION inactive; negative | [6] inactive; negative | Test System: AMES SALMONELLA TYPHIMURIUM, Strain/Indicator: TA1535, Metabolic Activation: HAMSTER, LIVER, S-9, AROCLOR 1254 (10%), Method: PREINCUBATION inactive; negative | Test System: AMES SALMONELLA TYPHIMURIUM, Strain/Indicator: TA1535, Metabolic Activation: HAMSTER, LIVER, S-9, AROCLOR 1254, Method: STANDARD PLATE inactive; negative | Test System: AMES SALMONELLA TYPHIMURIUM, Strain/Indicator: TA1535, Metabolic Activation: NONE, Method: PREINCUBATION inactive; negative | Test System: AMES SALMONELLA TYPHIMURIUM, Strain/Indicator: TA1535, Metabolic Activation: NONE, Method: STANDARD PLATE inactive; negative | Test System: AMES SALMONELLA TYPHIMURIUM, Strain/Indicator: TA1535, Metabolic Activation: RAT, LIVER, S-9, AROCLOR 1254 (10%), Method: PREINCUBATION inactive; negative | Test System: AMES SALMONELLA TYPHIMURIUM, Strain/Indicator: TA1535, Metabolic Activation: RAT, LIVER, S-9, AROCLOR 1254, Method: STANDARD PLATE inactive; negative | Test System: AMES SALMONELLA TYPHIMURIUM, Strain/Indicator: TA1537, Metabolic Activation: HAMSTER, LIVER, S-9, AROCLOR 1254 (10%), Method: PREINCUBATION inactive; negative | Test System: AMES SALMONELLA TYPHIMURIUM, Strain/Indicator: TA1537, Metabolic Activation: HAMSTER, LIVER, S-9, AROCLOR 1254, Method: STANDARD PLATE inactive; negative | Test System: AMES SALMONELLA TYPHIMURIUM, Strain/Indicator: TA1537, Metabolic Activation: NONE, Method: PREINCUBATION inactive; negative | Test System: AMES SALMONELLA TYPHIMURIUM, Strain/Indicator: TA1537, Metabolic Activation: NONE, Method: STANDARD PLATE inactive; negative | Test System: AMES SALMONELLA TYPHIMURIUM, Strain/Indicator: TA1537, Metabolic Activation: RAT, LIVER, S-9, AROCLOR 1254 (10%), Method: PREINCUBATION inactive; negative | Test System: AMES SALMONELLA TYPHIMURIUM, Strain/Indicator: TA1537, Metabolic Activation: RAT, LIVER, S-9, AROCLOR 1254, Method: STANDARD PLATE inactive; negative | Test System: MOUSE LYMPHOMA, Strain/Indicator: L5178Y (TK+/TK-), Metabolic Activation: NONE, Method: SUSPENSION/PLATE inactive; negative | Test System: MOUSE LYMPHOMA, Strain/Indicator: L5178Y (TK+/TK-), Metabolic Activation: RAT, LIVER, S-9, AROCLOR 1254, Method: SUSPENSION/PLATE inactive; negative | Test System: Mouse lymphoma, Strain/Indicator: L5178Y (tk+/tk-), Metabolic Activation: None, Method: Suspension/plate inactive; negative | Test System: Mouse lymphoma, Strain/Indicator: L5178Y (tk+/tk-), Metabolic Activation: Rat, Liver, S-9, Aroclor 1254, Method: Suspension/plate inactive; negative
